Legend:
[1] = DRUGMATRIX: Tumor Necrosis Factor (TNF), Non-Selective radioligand binding (ligand: [125I] TNF-alpha); type: cell membranes, Membrane; settings: u-937; Not Active = under 50% inhibition at 10 µM
[2] = target: Acetylcholinesterase (Homo sapiens, UniProt P22303); experiment: DRUGMATRIX: Acetylcholinesterase enzyme inhibition (substrate: acetylthiocholine); type: cell-based, HEK293; settings: hek293; Not Active = under 50% inhibition at 10 µM
[3] = target: D(1A) dopamine receptor (Homo sapiens, UniProt P21728); experiment: DRUGMATRIX: Dopamine D1 radioligand binding (ligand: [3H] SCH-23390); type: cell membranes, CHO, Membrane; settings: Not Active = under 50% inhibition at 10 µM; for Ki: read-out: Ki
[4] = target: T1, Neuropeptide Y receptor type 1 (Homo sapiens, UniProt P25929); type: cell membranes, Membrane; settings: sk-n-mc; note: in other assays of this panel Not Active means under 50% inhibition at 10 µM
T1 sequence (P25929 whole entry): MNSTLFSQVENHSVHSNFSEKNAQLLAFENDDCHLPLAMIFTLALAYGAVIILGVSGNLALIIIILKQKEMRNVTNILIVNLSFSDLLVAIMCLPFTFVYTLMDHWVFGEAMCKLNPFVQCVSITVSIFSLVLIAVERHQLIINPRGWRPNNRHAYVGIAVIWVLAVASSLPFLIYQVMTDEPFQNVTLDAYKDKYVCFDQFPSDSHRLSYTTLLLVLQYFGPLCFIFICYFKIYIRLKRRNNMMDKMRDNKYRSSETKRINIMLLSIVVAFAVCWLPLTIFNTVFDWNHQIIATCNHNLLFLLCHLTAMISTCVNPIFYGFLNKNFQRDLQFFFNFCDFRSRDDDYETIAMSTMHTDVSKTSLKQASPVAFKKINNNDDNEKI

[5] = target: T2, Type-2 angiotensin II receptor (Homo sapiens, UniProt P50052); type: cell-based; settings: cho-k1; note: in other assays of this panel Not Active means under 50% inhibition at 10 µM
T2 sequence (P50052 whole entry): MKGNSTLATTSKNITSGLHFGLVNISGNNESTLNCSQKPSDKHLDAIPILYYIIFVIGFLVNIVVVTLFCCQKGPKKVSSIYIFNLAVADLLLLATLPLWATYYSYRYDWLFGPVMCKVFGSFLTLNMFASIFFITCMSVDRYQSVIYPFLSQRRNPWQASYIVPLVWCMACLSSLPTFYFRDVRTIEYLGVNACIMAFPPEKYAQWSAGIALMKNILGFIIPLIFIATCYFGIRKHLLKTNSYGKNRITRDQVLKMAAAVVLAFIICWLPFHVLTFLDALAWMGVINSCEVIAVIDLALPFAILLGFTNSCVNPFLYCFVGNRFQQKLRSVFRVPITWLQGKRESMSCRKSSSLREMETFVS

[6] = target: Vasopressin V1a receptor (Homo sapiens, UniProt P37288); type: cell membranes, Membrane; settings: hek293; note: in other assays of this panel Not Active means under 50% inhibition at 10 µM
[7] = DRUGMATRIX: Purinergic P2X radioligand binding (ligand: [3H] alpha, beta-Methylene-ATP); type: cell membranes, Oryctolagus cuniculus, New Zealand albino, Urinary bladder, Membrane; settings: Not Active = under 50% inhibition at 10 µM

Sequence of Vasopressin V1a receptor (P37288 whole entry): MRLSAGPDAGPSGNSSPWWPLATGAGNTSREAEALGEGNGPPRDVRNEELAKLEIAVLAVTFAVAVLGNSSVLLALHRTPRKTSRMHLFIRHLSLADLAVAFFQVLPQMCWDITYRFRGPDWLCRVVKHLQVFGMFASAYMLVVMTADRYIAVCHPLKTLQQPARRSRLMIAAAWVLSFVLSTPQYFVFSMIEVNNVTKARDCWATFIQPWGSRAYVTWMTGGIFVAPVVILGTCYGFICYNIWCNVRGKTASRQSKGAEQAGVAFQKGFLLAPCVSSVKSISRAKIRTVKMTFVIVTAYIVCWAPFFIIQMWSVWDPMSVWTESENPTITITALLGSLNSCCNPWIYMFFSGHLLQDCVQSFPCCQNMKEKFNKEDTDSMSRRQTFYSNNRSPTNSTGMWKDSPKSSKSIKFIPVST
Sequence of Acetylcholinesterase (P22303 whole entry): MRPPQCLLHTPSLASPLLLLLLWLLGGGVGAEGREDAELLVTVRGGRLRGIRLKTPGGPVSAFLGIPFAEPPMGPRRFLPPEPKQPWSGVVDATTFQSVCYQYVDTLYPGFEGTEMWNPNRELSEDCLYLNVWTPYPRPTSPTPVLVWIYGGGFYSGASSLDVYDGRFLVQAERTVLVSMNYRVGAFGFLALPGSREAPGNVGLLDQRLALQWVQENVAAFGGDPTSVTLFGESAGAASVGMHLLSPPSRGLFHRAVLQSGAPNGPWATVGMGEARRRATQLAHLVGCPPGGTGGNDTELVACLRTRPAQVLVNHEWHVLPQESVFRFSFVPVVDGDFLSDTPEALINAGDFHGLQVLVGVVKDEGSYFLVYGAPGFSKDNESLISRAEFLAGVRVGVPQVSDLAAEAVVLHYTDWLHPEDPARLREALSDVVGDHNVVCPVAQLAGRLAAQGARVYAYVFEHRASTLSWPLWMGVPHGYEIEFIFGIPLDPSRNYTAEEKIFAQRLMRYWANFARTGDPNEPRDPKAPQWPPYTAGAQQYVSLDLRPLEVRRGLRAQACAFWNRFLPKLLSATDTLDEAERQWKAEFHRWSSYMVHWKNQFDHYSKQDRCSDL
Sequence of D(1A) dopamine receptor (P21728 whole entry): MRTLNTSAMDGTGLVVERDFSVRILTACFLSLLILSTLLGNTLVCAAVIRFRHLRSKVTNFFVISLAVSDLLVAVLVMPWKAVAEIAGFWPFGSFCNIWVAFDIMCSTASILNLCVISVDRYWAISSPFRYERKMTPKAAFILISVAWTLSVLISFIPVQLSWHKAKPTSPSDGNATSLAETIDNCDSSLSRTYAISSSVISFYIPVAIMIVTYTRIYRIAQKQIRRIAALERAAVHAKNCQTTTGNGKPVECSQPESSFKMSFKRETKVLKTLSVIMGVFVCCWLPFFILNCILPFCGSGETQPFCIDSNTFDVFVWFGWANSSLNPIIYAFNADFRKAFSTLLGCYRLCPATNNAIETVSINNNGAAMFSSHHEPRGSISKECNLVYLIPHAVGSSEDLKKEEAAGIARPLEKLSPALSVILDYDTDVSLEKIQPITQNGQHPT

Row | Compound | IC50 [1] | Ki [1] | IC50 [2] | IC50 ([3]; read-out: IC50) | Ki [3] | IC50 [4] | IC50 [5] | IC50 [6] | IC50 [7] | Ki [7] | IC50 ([3]; cho)
1 | CC[C@@H](CO)NC(=O)[C@@H]1C=C2c3cccc4[nH]cc(c34)C[C@H]2N(C)C1 [METHYLERGONOVINE] | Not Active | Not Active | Not Active | 1.08 µM | 0.539 µM | Not Active | Not Active | Not Active | Not Active | Not Active | 
2 | Cc1cccc(N(C)C(=S)Oc2ccc3ccccc3c2)c1 [TOLNAFTATE] | Not Active | Not Active | Not Active |  |  | Not Active | Not Active | Not Active | Not Active | Not Active | Not Active
3 | Cc1oncc1C(=O)Nc1ccc(C(F)(F)F)cc1 [LEFLUNOMIDE] | Not Active | Not Active | Not Active |  |  | Not Active | Not Active | Not Active | Not Active | Not Active | Not Active
4 | Nc1nc2ccc(OC(F)(F)F)cc2s1 [RILUZOLE] | Not Active | Not Active | Not Active |  |  | Not Active | Not Active | Not Active | Not Active | Not Active | Not Active
5 | Cc1c(C)c2c(c(C)c1O)CCC(C)(COc1ccc(CC3SC(=O)NC3=O)cc1)O2 (configuration not stated) [TROGLITAZONE] | Not Active | Not Active | Not Active |  |  | Not Active | Not Active | Not Active | Not Active | Not Active | Not Active
6 | CCCOc1ccccc1-c1nc2nn[nH]c2c(=O)[nH]1 [ZAPRINAST] | Not Active | Not Active | Not Active |  |  | Not Active | Not Active | Not Active | Not Active | Not Active | Not Active
7 | CC[C@]1(O)C[C@H]2CN(CCc3c([nH]c4ccccc34)[C@@](C(=O)OC)(c3cc4c(cc3OC)N(C=O)[C@H]3[C@@](O)(C(=O)OC)[C@H](OC(C)=O)[C@]5(CC)C=CCN6CC[C@]43[C@@H]65)C2)C1 [VINCRISTINE] | Not Active | Not Active | Not Active |  |  | Not Active | Not Active | Not Active | Not Active | Not Active | Not Active
8 | COc1c(C)c2c(c(O)c1C/C=C(\C)CCC(=O)O)C(=O)OC2 [MYCOPHENOLIC ACID] | Not Active | Not Active | Not Active |  |  | Not Active | Not Active | Not Active | Not Active | Not Active | Not Active
9 | CSc1ccc(/C=C2/C(C)=C(CC(=O)O)c3cc(F)ccc32)cc1 [SULINDAC SULFIDE] | Not Active | Not Active | Not Active | 27.8 µM | 13.9 µM | Not Active | Not Active | Not Active | Not Active | Not Active | 
10 | O=NN(CCCl)C(=O)NC1CCCCC1 [LOMUSTINE] | Not Active | Not Active | Not Active |  |  | Not Active | Not Active | Not Active | Not Active | Not Active | Not Active
